Entries after “also recorded” stand apart in the source; their conditions may differ.
Experiments:
lavaged rat model of RDS = assay: Oxygenation response in lavaged rat model of RDS; assay type: in vivo; settings: for in vivo activity in the rat RDS model system: FIGS. 6A and 6B (oxygenation and dynamic compliance)
From the text: FIG. 6A illustrates an example of an oxygenation response of a lavaged rat model of RDS comparing INFASURF™, a known effective animal based (cow lung lavage that includes surfactant lipids and native Cow SP-B and SP—C proteins) supplement formulation (—◯—), pig native surfactant B in INFASURF™ lipids (—Δ—), Mini-B peptide in simulated INFASURF™ lipids (—▪—), the C-terminal domain of SP-B (residues 63-78) in the oxidized (--♦--) and reduced format (—∇--), a serine derivative the C-terminal domain of SP-B (residues 63-78) with cationic arginines (R) replaced with serine residues, in oxidized (—◯--) and (—∇—) format, the N-terminal domain of SP-B (residues 11 to 25 of native SP-B) in the monomer (—□—) and a dimer (—●--) conformation and ISPL alone (—Δ—). […] A Mini-B construct also compares favorably with the commercial preparation INFASURF™ that contains both the native SP-B and SP—C protein.
(§1) The activity of a Mini-B construct is very similar to that of the commercial preparation INFASURF™ that includes equimolar amounts of native SP-B in native lung surfactant lipids and native SP—C proteins typically used in present RDS therapies.

[1] = Langmuir trough surface activity (surface pressure upon compression, respreading); assay type: physicochemical; settings: in ISPL lipids vs lipids alone, FIG. 8, 9
From the text: Langmuir trough measurements of a Mini-B construct in ISPL lipids are represented in FIG. 8. The peptide at two different concentrations is compared to lipids […]. Lipids alone on the Langmuir trough show very little change in surface pressure with compression of the air-water interface film. […] Higher concentrations of a Mini-B construct in the lipids further enhance the surface activity of the preparation and show the characteristic chances in surface pressure as a function of compression/decompression of the lipid-peptide surface film that are associated with optimal in vitro activity typical of lung surfactant preparations containing SP-B native protein.
FIG. 9 illustrates Langmuir trough measurements of a Mini-B construct in ISPL. The construct was measured at a single concentration to show the consistent pressure dependent reproducibility of the construct in the lipids that is an important criteria of an effective lung surfactant dispersion. Lipids alone on the Langmuir trough show very little change in surface pressure with compression of the air-water interface film. […]

[2] = Surface shear viscosity measurements in ISPL lipid dispersion; assay type: physicochemical; settings: over surface pressures and compression-expansion cycles, FIG. 7
From the text: Surface shear viscosity measurements of a Mini-B construct in a simulated INFASURF™ lipid dispersion ISPL (cow lung lavage lipids) is represented in FIG. 7.

[3] = test system: Rat RDS animal model system; assay: Dynamic compliance measurements in the Rat RDS animal model system; assay type: in vivo; settings: peptide in simulated INFASURF lipids (ISPL), FIG. 6B
From the text: FIG. 6B represents dynamic compliance measurements (a measure of lung mechanical plasticity) in the Rat RDS animal model system comparing INFASURF™ replacement formulation, pig native surfactant B in INFASURF™ lipids (—◯—), a Mini-B construct in simulated INFASURF™ lipids (—▪—), the C-terminal domain of SP-B (residues 63-78) in the oxidized (--♦--) and reduced (—∇--) format, a serine derivative the C-terminal domain of SP-B (residues 63-78) with cationic arginines (R) replaced with serine residues, in oxidized (—◯--) and (—∇—) format, the N-terminal domain of SP-B (residues 11 to 25 of native SP-B) in the monomer (—□—) and dimer (—●--) conformation and ISPL alone (—Δ—).
as §1

[4] = Brewster Angle Microscope images of monolayer surfaces on the Langmuir trough; assay type: physicochemical; settings: Mini-B-ISPL lipids vs lipids alone; BAM images, FIG. 11
From the text: Brewster Angle Microscope images of monolayer surfaces of Mini-B-ISPL lipids versus lipids alone on the Langmuir trough as a fimcfion of surface pressure is represented in FIG. 11. […] This Mini-B induced lipid aggregation in monolayers is typical of the effect of native surfactant protein B and surfactant B type peptides.
Brewster Angle Microscope images of monlayer surfaces of Mini-B-synthetic cow lung lipids compared with the commercial surfactant preparation INFASURF™ that contains native SP-B and SP-C proteins is represented in FIG. 12. Preparations containing Mini-B aggregate lipids were similar to the commercial surfactant preparation.

B11-25: N-terminal domain of SP-B (residues 11 to 25 of native SP-B) (CRALIKRIQAMIPKG; Pulmonary surfactant-associated protein B; UniProt P07988 211-225, looked up, fragment) [reference compound]
in vivo activity in the rat RDS model system (lavaged rat model of RDS): relatively ineffective in vivo activity

B63-78: C-terminal domain of SP-B (residues 63-78) (GRMLPQLVCRLVLRCS; Pulmonary surfactant-associated protein B; UniProt P07988 263-278, looked up, fragment) [reference compound]
in vivo activity in the rat RDS model system (lavaged rat model of RDS): relatively ineffective in vivo activity

CWLCRALIKRIQAMIPKGGRMLPQLVCRLVLRCS [Mini-B, disulfide stabilized 34 residue cyclic peptide joining SP-B residues 8 to 25 and 63 to 78]
surface activity (surface pressure as a function of film compression) [1]: enhances the surface activity
shear surface viscosity [2]: remains constant at a large range of surface pressures
dynamic compliance [3]: performs very nearly as well as the commercial preparation
lipid aggregation in monolayers [4]: aggregate
in vivo activity in the rat RDS model system (lavaged rat model of RDS): exceeds that observed for native pig SP-B in synthetic surfactant lipids
oxygenation response (lavaged rat model of RDS; lavaged rat model of RDS, peptide in simulated INFASURF lipids (ISPL), FIG. 6A): outperforms all of the peptide segments of Mini-B separately; also recorded: closely parallels the oxygenation response that is observed for full-length native SP-B protein

— US7538090B1, “Exogenous surfactant protein B mimic” (Los Angeles Biomedical Research Institute at Harbor-UCLA …, priority 2004, dated 2009)
